Results taken from article PMC11873239, “A covalent chemical probe for Chikungunya nsP2 cysteine protease with antialphaviral activity and proteome-wide selectivity” (Scientific Reports, 2025).
Where “and” joins values, the source holds several entries; their conditions need not be identical. Equal values may be shown once.

How the values were obtained:
Type in all cases: binding
[1] = molecular target: HEK293 cell lysate proteins and CHIKV nsP2 (Homo sapiens, UniProt Q7L014)
[2] = molecular target: HEK293 cell lysate proteins and CHIKV nsP2 (Homo sapiens, UniProt Q5T750)
[3] = molecular target: HEK293 cell lysate proteins and CHIKV nsP2 (Homo sapiens, UniProt Q8NI27)
HEK293 cell lysate proteins and CHIKV nsP2 (Homo sapiens, UniProt Q8NI27), sequence (Q8NI27 whole entry): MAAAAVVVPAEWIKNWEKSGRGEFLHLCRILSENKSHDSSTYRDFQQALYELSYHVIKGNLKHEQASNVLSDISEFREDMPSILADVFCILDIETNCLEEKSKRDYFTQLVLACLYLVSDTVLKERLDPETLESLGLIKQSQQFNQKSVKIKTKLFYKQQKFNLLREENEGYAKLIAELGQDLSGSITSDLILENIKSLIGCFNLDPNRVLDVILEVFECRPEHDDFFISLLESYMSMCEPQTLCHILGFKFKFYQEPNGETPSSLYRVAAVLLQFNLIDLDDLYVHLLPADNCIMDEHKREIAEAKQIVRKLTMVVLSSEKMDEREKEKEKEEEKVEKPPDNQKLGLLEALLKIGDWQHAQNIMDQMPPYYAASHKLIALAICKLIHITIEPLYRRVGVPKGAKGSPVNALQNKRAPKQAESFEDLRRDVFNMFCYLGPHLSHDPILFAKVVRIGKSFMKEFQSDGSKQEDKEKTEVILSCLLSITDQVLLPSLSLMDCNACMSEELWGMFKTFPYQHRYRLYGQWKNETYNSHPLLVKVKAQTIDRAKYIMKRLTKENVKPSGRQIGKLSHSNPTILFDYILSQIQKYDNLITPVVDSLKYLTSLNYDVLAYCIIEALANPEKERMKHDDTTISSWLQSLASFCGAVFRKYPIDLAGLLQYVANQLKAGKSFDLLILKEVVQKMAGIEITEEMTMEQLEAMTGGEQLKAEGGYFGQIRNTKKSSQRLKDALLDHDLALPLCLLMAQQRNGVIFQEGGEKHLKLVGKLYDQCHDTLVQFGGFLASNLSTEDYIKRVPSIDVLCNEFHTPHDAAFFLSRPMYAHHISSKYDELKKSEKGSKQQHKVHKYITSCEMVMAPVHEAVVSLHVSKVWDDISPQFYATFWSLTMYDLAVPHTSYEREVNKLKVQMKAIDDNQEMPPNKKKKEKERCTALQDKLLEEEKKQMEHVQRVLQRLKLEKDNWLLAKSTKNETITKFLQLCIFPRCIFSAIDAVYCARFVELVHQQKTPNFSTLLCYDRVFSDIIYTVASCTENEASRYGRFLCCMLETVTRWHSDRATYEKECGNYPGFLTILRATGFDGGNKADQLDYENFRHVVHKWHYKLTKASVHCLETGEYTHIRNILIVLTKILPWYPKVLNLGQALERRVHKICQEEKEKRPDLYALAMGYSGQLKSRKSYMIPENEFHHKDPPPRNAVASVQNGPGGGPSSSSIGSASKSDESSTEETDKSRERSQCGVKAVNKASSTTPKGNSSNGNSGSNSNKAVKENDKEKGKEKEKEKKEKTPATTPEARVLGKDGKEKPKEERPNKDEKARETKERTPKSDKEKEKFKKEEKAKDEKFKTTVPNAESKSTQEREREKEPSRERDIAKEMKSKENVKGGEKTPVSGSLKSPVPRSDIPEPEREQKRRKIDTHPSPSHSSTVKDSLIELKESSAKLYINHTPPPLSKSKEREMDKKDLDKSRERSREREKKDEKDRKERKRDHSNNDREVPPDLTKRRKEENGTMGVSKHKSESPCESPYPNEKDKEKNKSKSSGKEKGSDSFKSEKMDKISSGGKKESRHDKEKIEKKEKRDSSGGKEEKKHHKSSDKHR

[4] = molecular target: HEK293 cell lysate proteins and CHIKV nsP2 (Homo sapiens, UniProt O60231)
[5] = molecular target: HEK293 cell lysate proteins and CHIKV nsP2 (Homo sapiens, UniProt P26368)
[6] = molecular target: HEK293 cell lysate proteins and CHIKV nsP2 (Homo sapiens, UniProt P05089)
[7] = molecular target: HEK293 cell lysate proteins and CHIKV nsP2 (Homo sapiens, UniProt Q99459)
[8] = molecular target: HEK293 cell lysate proteins and CHIKV nsP2 (Homo sapiens, UniProt P46821)
[9] = molecular target: HEK293 cell lysate proteins and CHIKV nsP2 (Homo sapiens, UniProt Q08188)
[10] = molecular target: HEK293 cell lysate proteins and CHIKV nsP2 (Homo sapiens, UniProt Q9NWH9)
[11] = molecular target: HEK293 cell lysate proteins and CHIKV nsP2 (Homo sapiens, UniProt P12273)
[12] = molecular target: HEK293 cell lysate proteins and CHIKV nsP2 (Homo sapiens, UniProt Q8NFC6)
[13] = molecular target: HEK293 cell lysate proteins and CHIKV nsP2 (Homo sapiens, UniProt P59665)
[14] = molecular target: HEK293 cell lysate proteins and CHIKV nsP2 (Homo sapiens, UniProt P27816)
[15] = molecular target: HEK293 cell lysate proteins and CHIKV nsP2 (Homo sapiens, UniProt P46013)
[16] = molecular target: HEK293 cell lysate proteins and CHIKV nsP2 (Homo sapiens, UniProt Q99549)
[17] = molecular target: HEK293 cell lysate proteins and CHIKV nsP2 (Homo sapiens, UniProt Q9Y520)
[18] = molecular target: HEK293 cell lysate proteins and CHIKV nsP2 (Homo sapiens, UniProt P06702)
[19] = molecular target: HEK293 cell lysate proteins and CHIKV nsP2 (Homo sapiens, UniProt A8K2U0)
[20] = molecular target: HEK293 cell lysate proteins and CHIKV nsP2 (Homo sapiens, UniProt Q3YEC7)
[21] = molecular target: HEK293 cell lysate proteins and CHIKV nsP2 (Homo sapiens, UniProt Q13428)
HEK293 cell lysate proteins and CHIKV nsP2 (Homo sapiens, UniProt Q13428), sequence (Q13428 whole entry): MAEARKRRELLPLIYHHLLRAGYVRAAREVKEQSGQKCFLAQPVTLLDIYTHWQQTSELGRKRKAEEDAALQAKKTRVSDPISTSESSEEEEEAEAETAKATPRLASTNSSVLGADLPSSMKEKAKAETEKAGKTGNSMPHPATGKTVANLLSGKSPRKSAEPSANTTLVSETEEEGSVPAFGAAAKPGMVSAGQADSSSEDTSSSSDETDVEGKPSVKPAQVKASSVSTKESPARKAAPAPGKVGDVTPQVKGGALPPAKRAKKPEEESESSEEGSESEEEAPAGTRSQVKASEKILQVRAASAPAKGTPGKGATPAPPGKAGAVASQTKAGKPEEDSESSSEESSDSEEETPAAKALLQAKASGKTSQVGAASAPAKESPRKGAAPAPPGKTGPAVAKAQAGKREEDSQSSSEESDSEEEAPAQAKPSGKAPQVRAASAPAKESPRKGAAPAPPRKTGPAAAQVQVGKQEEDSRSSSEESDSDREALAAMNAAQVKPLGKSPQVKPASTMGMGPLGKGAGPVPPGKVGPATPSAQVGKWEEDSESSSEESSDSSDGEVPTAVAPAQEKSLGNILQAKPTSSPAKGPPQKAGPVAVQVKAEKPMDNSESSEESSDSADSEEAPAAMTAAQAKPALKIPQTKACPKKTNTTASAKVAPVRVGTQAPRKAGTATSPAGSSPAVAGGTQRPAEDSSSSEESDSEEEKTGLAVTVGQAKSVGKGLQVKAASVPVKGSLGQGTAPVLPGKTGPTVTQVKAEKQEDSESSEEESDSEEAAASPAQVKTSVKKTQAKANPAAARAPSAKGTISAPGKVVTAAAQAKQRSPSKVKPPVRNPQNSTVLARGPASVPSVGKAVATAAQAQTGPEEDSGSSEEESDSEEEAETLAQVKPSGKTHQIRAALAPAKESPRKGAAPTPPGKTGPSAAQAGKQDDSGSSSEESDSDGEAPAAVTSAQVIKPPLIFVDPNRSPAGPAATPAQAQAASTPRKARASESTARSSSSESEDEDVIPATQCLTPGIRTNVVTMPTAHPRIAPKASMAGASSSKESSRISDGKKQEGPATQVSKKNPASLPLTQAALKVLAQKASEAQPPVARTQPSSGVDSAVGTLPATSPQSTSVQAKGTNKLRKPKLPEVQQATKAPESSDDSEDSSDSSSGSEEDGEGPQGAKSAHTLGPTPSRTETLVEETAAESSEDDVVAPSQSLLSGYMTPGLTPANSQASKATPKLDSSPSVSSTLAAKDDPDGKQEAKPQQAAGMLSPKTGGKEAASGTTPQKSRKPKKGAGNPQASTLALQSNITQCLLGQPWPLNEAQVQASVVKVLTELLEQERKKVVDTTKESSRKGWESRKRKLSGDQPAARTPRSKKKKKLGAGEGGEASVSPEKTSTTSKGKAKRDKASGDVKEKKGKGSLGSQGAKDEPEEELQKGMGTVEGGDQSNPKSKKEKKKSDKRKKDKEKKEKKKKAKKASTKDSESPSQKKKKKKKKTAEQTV

[22] = molecular target: HEK293 cell lysate proteins and CHIKV nsP2 (Homo sapiens, UniProt P11388)
HEK293 cell lysate proteins and CHIKV nsP2 (Homo sapiens, UniProt P11388), sequence (P11388 whole entry): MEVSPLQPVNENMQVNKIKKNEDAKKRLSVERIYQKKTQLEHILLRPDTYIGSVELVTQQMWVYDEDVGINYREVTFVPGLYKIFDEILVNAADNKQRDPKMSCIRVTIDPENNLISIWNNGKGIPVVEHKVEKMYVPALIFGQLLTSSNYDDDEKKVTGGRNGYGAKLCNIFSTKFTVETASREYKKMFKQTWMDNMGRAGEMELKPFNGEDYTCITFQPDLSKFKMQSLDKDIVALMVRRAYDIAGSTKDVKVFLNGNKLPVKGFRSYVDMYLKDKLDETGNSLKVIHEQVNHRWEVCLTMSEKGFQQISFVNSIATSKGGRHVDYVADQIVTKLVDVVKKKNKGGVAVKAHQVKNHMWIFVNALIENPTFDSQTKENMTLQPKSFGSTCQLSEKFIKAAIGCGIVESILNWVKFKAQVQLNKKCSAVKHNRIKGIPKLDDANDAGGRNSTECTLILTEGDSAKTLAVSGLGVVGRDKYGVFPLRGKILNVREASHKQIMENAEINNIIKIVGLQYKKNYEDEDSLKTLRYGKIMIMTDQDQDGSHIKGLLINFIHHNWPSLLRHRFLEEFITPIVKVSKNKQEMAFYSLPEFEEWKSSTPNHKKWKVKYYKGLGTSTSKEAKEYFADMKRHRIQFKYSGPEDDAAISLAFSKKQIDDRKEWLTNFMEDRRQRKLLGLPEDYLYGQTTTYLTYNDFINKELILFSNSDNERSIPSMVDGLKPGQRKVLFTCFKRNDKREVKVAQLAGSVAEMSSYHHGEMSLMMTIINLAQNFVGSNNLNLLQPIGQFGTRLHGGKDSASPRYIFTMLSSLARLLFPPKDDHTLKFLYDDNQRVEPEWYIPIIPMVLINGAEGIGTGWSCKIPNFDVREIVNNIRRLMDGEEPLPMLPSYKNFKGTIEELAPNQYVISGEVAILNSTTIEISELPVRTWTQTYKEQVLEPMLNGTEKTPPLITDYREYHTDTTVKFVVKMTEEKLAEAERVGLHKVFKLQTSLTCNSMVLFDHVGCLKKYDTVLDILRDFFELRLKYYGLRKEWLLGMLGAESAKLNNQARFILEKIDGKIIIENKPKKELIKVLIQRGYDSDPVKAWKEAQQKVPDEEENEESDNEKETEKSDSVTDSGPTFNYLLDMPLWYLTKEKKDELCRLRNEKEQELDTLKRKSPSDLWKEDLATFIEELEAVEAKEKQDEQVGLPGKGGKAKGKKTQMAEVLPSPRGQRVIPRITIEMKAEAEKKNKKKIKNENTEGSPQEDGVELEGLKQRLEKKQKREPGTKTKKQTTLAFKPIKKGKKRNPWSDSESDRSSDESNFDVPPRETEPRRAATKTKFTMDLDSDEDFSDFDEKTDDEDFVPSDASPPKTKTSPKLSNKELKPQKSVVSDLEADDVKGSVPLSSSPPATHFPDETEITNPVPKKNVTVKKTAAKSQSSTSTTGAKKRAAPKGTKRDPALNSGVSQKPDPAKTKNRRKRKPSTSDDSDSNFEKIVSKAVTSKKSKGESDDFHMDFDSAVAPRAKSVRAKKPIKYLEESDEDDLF

[23] = molecular target: HEK293 cell lysate proteins and CHIKV nsP2 (Homo sapiens, UniProt P11142)
[24] = molecular target: HEK293 cell lysate proteins and CHIKV nsP2 (Homo sapiens, UniProt Q15517)
[25] = molecular target: HEK293 cell lysate proteins and CHIKV nsP2 (Homo sapiens, UniProt O15042)
[26] = molecular target: HEK293 cell lysate proteins and CHIKV nsP2 (Homo sapiens, UniProt P04406)
HEK293 cell lysate proteins and CHIKV nsP2 (Homo sapiens, UniProt P04406), sequence (P04406 whole entry): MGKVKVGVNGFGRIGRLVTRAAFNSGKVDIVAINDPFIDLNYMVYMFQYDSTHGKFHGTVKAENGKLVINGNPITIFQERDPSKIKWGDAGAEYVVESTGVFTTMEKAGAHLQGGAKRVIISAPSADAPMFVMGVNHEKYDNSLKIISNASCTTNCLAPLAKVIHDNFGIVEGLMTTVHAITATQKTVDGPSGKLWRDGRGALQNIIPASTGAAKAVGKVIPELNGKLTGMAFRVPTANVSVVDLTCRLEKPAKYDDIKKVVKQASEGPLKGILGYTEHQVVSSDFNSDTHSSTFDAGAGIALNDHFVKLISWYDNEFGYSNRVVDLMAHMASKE

[27] = molecular target: HEK293 cell lysate proteins and CHIKV nsP2 (Homo sapiens, UniProt Q92616)
[28] = molecular target: HEK293 cell lysate proteins and CHIKV nsP2 (Homo sapiens, UniProt P35251)
[29] = molecular target: HEK293 cell lysate proteins and CHIKV nsP2 (Homo sapiens, UniProt P10599)
HEK293 cell lysate proteins and CHIKV nsP2 (Homo sapiens, UniProt P10599), sequence (P10599 whole entry): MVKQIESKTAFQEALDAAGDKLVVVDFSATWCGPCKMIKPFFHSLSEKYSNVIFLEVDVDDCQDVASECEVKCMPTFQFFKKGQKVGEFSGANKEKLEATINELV

[30] = molecular target: HEK293 cell lysate proteins and CHIKV nsP2 (Homo sapiens, UniProt Q9UQ35)
[31] = molecular target: HEK293 cell lysate proteins and CHIKV nsP2 (Homo sapiens, UniProt P01040)
[32] = molecular target: HEK293 cell lysate proteins and CHIKV nsP2 (Homo sapiens, UniProt P21127)
[33] = molecular target: HEK293 cell lysate proteins and CHIKV nsP2 (Homo sapiens, UniProt O75342)
[34] = molecular target: HEK293 cell lysate proteins and CHIKV nsP2 (Homo sapiens, UniProt Q9NYF8)
[35] = molecular target: HEK293 cell lysate proteins and CHIKV nsP2 (Homo sapiens, UniProt P13639)
[36] = molecular target: HEK293 cell lysate proteins and CHIKV nsP2 (Homo sapiens, UniProt Q9UHB7)

With C#CCOc1ccccc1-c1cc(C(=O)NC/C=C/S(C)(=O)=O)on1 [VS, (E)-N-(3-(methylsulfonyl)allyl)−3-(2-(prop-2-yn-1-yloxy)phenyl)isoxazole-5-carboxamide] the Log2 fold change [1] was -0.13, the Log2 fold change [2] was 2.49 and the Log2 fold change [3] was -0.12. The Log2 fold change [4] was 4.33, the Log2 fold change [5] was -0.62 and the Log2 fold change [6] was 1.79. The Log2 fold change [7] was -0.00878, the Log2 fold change [8] was -0.63 and the Log2 fold change [9] was 1.61. The Log2 fold change [10] was -0.40, the Log2 fold change [11] was 1.00 and the Log2 fold change [12] was 0.23. The Log2 fold change [13] was -2.83, the Log2 fold change [14] was -0.37 and the Log2 fold change [15] was 0.64. The Log2 fold change [16] was 0.0737, the Log2 fold change [17] was 0.50 and the Log2 fold change [18] was 1.63. For the same compound, the Log2 fold change [19] was 1.10, the Log2 fold change [20] was -2.27 and the Log2 fold change [21] was 1.02 and 1.32. The Log2 fold change [22] was -1.34, the Log2 fold change [23] was 1.15 and the Log2 fold change [24] was 1.22. For the same compound, the Log2 fold change [25] was 0.06, the Log2 fold change [26] was 1.78 and the Log2 fold change [27] was -2.86. It also gave a Log2 fold change [28] of 0.30, a Log2 fold change [29] of 1.84 and a Log2 fold change [30] of 0.25. For the same compound, the Log2 fold change [31] was 1.75, the Log2 fold change [32] was 0.12 and the Log2 fold change [33] was 2.14. The Log2 fold change [34] was -0.75, the Log2 fold change [35] was 1.35 and the Log2 fold change [36] was -0.42.
